Source: US20110166163A1, “SUBSTITUTED FUROPYRIMIDINES AND USE THEREOF” (BAYER SCHERING PHARMA AKTIENGESELLSCHAFT, priority 2007, published 2011)

Molecular target: T1, prostacyclin receptors (IP receptors) (Homo sapiens, UniProt P43119)
T1 construct: Thrombocyte membranes are obtained by centrifuging 50 ml of human blood; tissue Maco Pharma, Langen (buffy coats); host or cells: human thrombocyte (platelet) membranes from blood buffy coats
Test: Binding to prostacyclin receptors (IP receptors) of human thrombocyte membranes
Details: displacement of 3 nM 3H-Iloprost, 60 min, room temperature
Method: Thrombocyte membranes are obtained by centrifuging 50 ml of human blood (Buffy coats with CDP Stabilizer, from Maco Pharma, Langen) for 20 min at 160×g. Remove the supernatant (platelet-rich plasma, PRP) and then centrifuge again at 2000×g for 10 min at room temperature. Resuspend the sediment in 50 mM tris(hydroxymethyl)amino-methane, which has been adjusted to a pH of 7.4 with 1 N hydrochloric acid, and store at −20° C. overnight. On the next day, centrifuge the suspension at 80 000×g and 4° C. for 30 min. Discard the supernatant. Resuspend the sediment in 50 mM tris(hydroxy-methyl)aminomethane/hydrochloric acid, 0.25 mM ethylene diamine tetraacetic acid (EDTA), pH 7.4, and then centrifuge once again at 80 000×g and 4° C. for 30 min. Take up the membrane sediment in binding buffer (50 mM tris(hydroxymethyl)-aminomethane/hydrochloric acid, 5 mM magnesium chloride, pH 7.4) and store at −70° C. until the binding test.
For the binding test, incubate 3 nM ^3H-Iloprost (592 GBq/mmol, from AmershamBioscience) for 60 min with 300-1000 μg/ml of human thrombocyte membranes per charge (max. 0.2 ml) in the presence of the test substances at room temperature. After stopping, add cold binding buffer to the membranes and wash with 0.1% bovine serum albumin. After adding Ultima Gold Scintillator, quantify the radioactivity bound to the membranes using a scintillation counter. The nonspecific binding is defined as radioactivity in the presence of 1 μM Iloprost (from Cayman Chemical, Ann Arbor) and is as a rule <25% of the bound total radioactivity. The binding data (IC50 values) are determined using the program GraphPad Prism Version 3.02.

T1 sequence (P43119 whole entry): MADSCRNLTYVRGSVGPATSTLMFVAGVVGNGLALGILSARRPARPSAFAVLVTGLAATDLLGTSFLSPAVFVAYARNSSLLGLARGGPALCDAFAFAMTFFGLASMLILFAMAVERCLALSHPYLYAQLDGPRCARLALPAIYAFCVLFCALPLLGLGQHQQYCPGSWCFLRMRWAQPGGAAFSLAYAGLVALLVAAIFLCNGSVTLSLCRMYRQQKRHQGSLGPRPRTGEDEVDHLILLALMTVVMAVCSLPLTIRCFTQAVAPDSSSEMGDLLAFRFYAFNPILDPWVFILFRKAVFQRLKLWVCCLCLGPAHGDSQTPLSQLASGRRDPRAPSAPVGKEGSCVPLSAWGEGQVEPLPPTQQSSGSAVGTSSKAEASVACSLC

Row | Structure (SMILES) | IC50
1 | C=Cc1ccc(-c2c(-c3ccccc3)oc3ncnc(NCCCCCC(=O)OC)c23)nc1 [Example 3, Methyl 6-{[6-phenyl-5-(5-vinylpyridin-2-yl)furo[2,3-d]pyrimidin-4-yl]amino}hexanoate] | 105 nM
2 | CCc1ccc(-c2c(-c3ccccc3)oc3ncnc(NCCCCCC(=O)O)c23)nc1 [Example 18] | 125 nM
3 | COc1ccc(-c2c(-c3ccccn3)oc3ncnc(O[C@H](C)CCCCC(=O)O)c23)cc1 [Example 21] | 53 nM
4 | COc1ccc(-c2c(C3=CCCCC3)oc3ncnc(O[C@H](C)CCCCC(=O)O)c23)cc1 [Example 24] | 72 nM
5 | CC1CC=C(c2c(-c3ccccc3)oc3ncnc(O[C@H](C)CCCCC(=O)O)c23)CC1 (stereo partly drawn) [Example 26, (6R)-6-{[5-(4-Methylcyclohex-1-en-1-yl)-6-phenylfuro[2,3-d]pyrimidin-4-yl]oxy}heptanoic acid] | 1870 nM
6 | COc1ccc(-c2c(-c3cccs3)oc3ncnc(NCCCCCC(=O)O)c23)cc1 [Example 32, 6-{[5-(4-Methoxyphenyl)-6-(2-thienyl)furo[2,3-d]pyrimidin-4-yl]amino}hexanoic acid] | 134 nM
7 | CCOC(=O)COC[C@@H](C)COc1ncnc2oc(-c3ccccn3)c(-c3ccc(OC)cc3)c12 [Example 37] | 56 nM
8 | CCc1ccc(-c2c(-c3ccccc3)oc3ncnc(OC[C@H](C)COCC(=O)O)c23)nc1 [Example 46] | 63 nM
9 | COc1ccc(-c2c(-c3ncccc3F)oc3ncnc(O[C@H](C)CCCCC(=O)O)c23)cc1 [Example 48] | 121 nM
10 | CCc1ccc(-c2c(-c3ccccn3)oc3ncnc(O[C@H](C)CCCCC(=O)O)c23)cc1 [Example 49] | 19 nM
11 | CCc1ccc(-c2c(-c3ccccn3)oc3ncnc(OC[C@H](C)OCCC(=O)O)c23)cc1 [Example 51] | 193 nM
